This is an account of results in patent US12233161B1, “Lipids and lipid nanoparticle formulations” (LONGUIDE BIOPHARMA CORPORATION, priority 2024, dated 2025).

One data set relates to mice. As to the kind of experiment: In vivo delivery of FLuc-mRNA lipid nanoparticles in mice, in vivo imaging (IVIS). An outline of the steps: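 Mice (n=3) received about 75 μL FLuc-mRNA LNP per mouse intramuscularly (rectus femoris), intravenously (tail vein), intraperitoneally or subcutaneously (back). After injection, D-luciferin (200 μL, 15 mg/mL) was given i.p. 10-15 min before IVIS imaging.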

The nature of data set [1]: Potential characterization of nucleic acid lipid nanoparticle preparations. It counts as physicochemical. A digest of the protocol: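 Nanoparticles (about 0.04 mg/mL mRNA) were diluted in ultrapure water for Malvern ZEN3700 measurement: 20 μL into 780 μL for potential alone, or 27.5 μL into 200 μL for DLS particle size followed by addition of 600 μL water for potential.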

Data set [2] can be described thus: Particle size and PDI of nucleic acid lipid nanoparticle preparations by dynamic light scattering. It counts as physicochemical. A digest of the protocol: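 Size read by DLS after diluting the LNP preparation (approx. 0.04 mg/mL mRNA) in ultrapure water with gentle pipette mixing. The same sample, recovered and diluted further with water, was then used for zeta potential measurement.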

The mark [3] stands for this setting: DMG-PEG2000:DSPC:Chol:compound 1.40:11.15:38.95:48.50, N/P 40.
[4] abbreviates: DMG-PEG2000:DSPC:Chol:compound 1.00:10.00:33.00:56.00, N/P 35.5.
[5] abbreviates: DMG-PEG2000:DSPC:Chol:compound 1.40:11.15:38.95:48.50, N/P 30.
Setting [6] is: mRNA LNP, 1.00:4.00:30.00:65.00, N/P 30, IV, liver.
Setting [7] is: mRNA LNP, 1.00:4.00:30.00:65.00, N/P 30, IV, lung.
The mark [8] stands for this setting: mRNA LNP, 1.00:4.00:30.00:65.00, N/P 30, IV, spleen.
Where [9] appears, read: mRNA LNP, 1.40:11.15:38.95:48.50, N/P 30, IV, liver.
The mark [10] stands for this setting: mRNA LNP, 1.40:11.15:38.95:48.50, N/P 30, IV, lung.
[11] abbreviates: mRNA LNP, 1.40:11.15:38.95:48.50, N/P 30, IV, spleen.
Where [12] appears, read: mRNA LNP, 1.00:4.00:30.00:65.00, N/P 30.
[13] abbreviates: mRNA LNP, 1.40:11.15:38.95:48.50, N/P 30.
The mark [14] stands for this setting: mPEG-DMPE:DOPE:Chol:compound 1.40:11.15:38.95:48.50, N/P 24.
[15] abbreviates: DMG-PEG2000:DSPC:Chol:compound 1.40:11.15:38.95:48.50, N/P 20.

For `CCCCCCCCCCNC(=O)C(O)CN(CCCN(CCCN(CCO)CCO)CCCN(CC(O)C(=O)NCCCCCCCCCC)CC(O)C(=O)NCCCCCCCCCC)CC(O)C(=O)NCCCCCCCCCC` (centres unmarked) [Compound L0304], the IVIS was 3.48E+05 with mice (IM, DMG-PEG2000:DSPC:Chol:compound 1.40:11.15:38.95:48.50, N/P 40, Fluc-mRNA); 9.15E+06 with mice (IV, body, DMG-PEG2000:DSPC:Chol:compound 1.00:10.00:33.00:56.00, N/P 35.5, Fluc-mRNA); 1.29E+07 in the data set with mice (IV, body, DMG-PEG2000:DSPC:Chol:compound 1.40:11.15:38.95:48.50, N/P 40, Fluc-mRNA); 6.18E+05 in the data set on mice (IV, liver, DMG-PEG2000:DSPC:Chol:compound 1.00:10.00:33.00:56.00, N/P 35.5, Fluc-mRNA); 7.31E+05 with mice (IV, liver, DMG-PEG2000:DSPC:Chol:compound 1.40:11.15:38.95:48.50, N/P 40, Fluc-mRNA); 2.12E+07 in the data set on mice (IV, lung, DMG-PEG2000:DSPC:Chol:compound 1.00:10.00:33.00:56.00, N/P 35.5, Fluc-mRNA). Moreover, the IVIS in the data set with mice (IV, lung, DMG-PEG2000:DSPC:Chol:compound 1.40:11.15:38.95:48.50, N/P 40, Fluc-mRNA) came out at 2.87E+07; in the data set with mice (IV, spleen, DMG-PEG2000:DSPC:Chol:compound 1.00:10.00:33.00:56.00, N/P 35.5, Fluc-mRNA), 1.62E+06; in the data set on mice (IV, spleen, DMG-PEG2000:DSPC:Chol:compound 1.40:11.15:38.95:48.50, N/P 40, Fluc-mRNA), 2.27E+06. For the same compound, the “% of organ targeting” value in the data set on mice (IV, liver, DMG-PEG2000:DSPC:Chol:compound 1.00:10.00:33.00:56.00, N/P 35.5) is 2.63%; in the data set on mice (IV, liver, DMG-PEG2000:DSPC:Chol:compound 1.40:11.15:38.95:48.50, N/P 40) it was 2.30%; in the data set on mice (IV, lung, DMG-PEG2000:DSPC:Chol:compound 1.00:10.00:33.00:56.00, N/P 35.5), 90.44%; in the data set on mice (IV, lung, DMG-PEG2000:DSPC:Chol:compound 1.40:11.15:38.95:48.50, N/P 40) it was 90.53%; in the data set on mice (IV, spleen, DMG-PEG2000:DSPC:Chol:compound 1.00:10.00:33.00:56.00, N/P 35.5), 6.93%; in the data set with mice (IV, spleen, DMG-PEG2000:DSPC:Chol:compound 1.40:11.15:38.95:48.50, N/P 40) it was 7.17%. Moreover, the “Zeta potential (mV)” value in data set [1] (setting [3]) came to 11.93 mV. The PDI was determined as 0.15 in data set [2] (setting [4]) and 0.14 in data set [2] (setting [3]). Moreover, the “Particle size (nm)” value in data set [2] (setting [4]) came to 121.27 nm; in data set [2] (setting [3]), 101.73 nm.

As for `CCCCCCCCCCOC(=O)C(O)CN(CCCN(CC(O)C(=O)OCCCCCCCCCC)CC(O)C(=O)OCCCCCCCCCC)CCCN(CC(O)C(=O)OCCCCCCCCCC)CC(O)C(=O)OCCCCCCCCCC` (centres unmarked) [Compound L0339], the IVIS in the data set on mice (IM, DMG-PEG2000:DSPC:Chol:compound 1.40:11.15:38.95:48.50, N/P 30, Fluc-mRNA) was found to be 8.33E+07; with mice (IV, body, DMG-PEG2000:DSPC:Chol:compound 1.40:11.15:38.95:48.50, N/P 30, Fluc-mRNA), 5.92E+07; in the data set on mice (IV, liver, DMG-PEG2000:DSPC:Chol:compound 1.40:11.15:38.95:48.50, N/P 30, Fluc-mRNA), 1.17E+07; in the data set on mice (IV, lung, DMG-PEG2000:DSPC:Chol:compound 1.40:11.15:38.95:48.50, N/P 30, Fluc-mRNA) it was 1.67E+05; in the data set with mice (IV, spleen, DMG-PEG2000:DSPC:Chol:compound 1.40:11.15:38.95:48.50, N/P 30, Fluc-mRNA), 2.87E+07. In addition, the “% of organ targeting” value was found to be 28.78% in the data set on mice (IV, liver, DMG-PEG2000:DSPC:Chol:compound 1.40:11.15:38.95:48.50, N/P 30); 0.41% in the data set with mice (IV, lung, DMG-PEG2000:DSPC:Chol:compound 1.40:11.15:38.95:48.50, N/P 30); 70.81% with mice (IV, spleen, DMG-PEG2000:DSPC:Chol:compound 1.40:11.15:38.95:48.50, N/P 30). In data set [1] (setting [5]), the “Zeta potential (mV)” value was 12.37 mV. In data set [2] (setting [5]), this compound yielded a PDI of 0.15. Besides, the “Particle size (nm)” value in data set [2] (setting [5]) is reported as 126.63 nm.

In the case of `CCCCCCCCCCCCNC(=O)CCN(CCC(=O)NCCCCCCCCCCCC)CCN(C)CCN(CCC(=O)NCCCCCCCCCCCC)CCC(=O)NCCCCCCCCCCCC` [L0264-Control, reference compound], the “% of organ targeting” value was 0.58% in the data set on mice (setting [6]); 86.18% in the data set on mice (setting [7]); 13.25% in the data set on mice (setting [8]); 1.25% in the data set with mice (setting [9]); 74.91% in the data set on mice (setting [10]); 23.85% with mice (setting [11]). Moreover, the IVIS is reported as 1.67E+06 in the data set with mice (setting [6]); 2.49E+08 in the data set with mice (setting [7]); 3.82E+07 in the data set with mice (setting [8]); 1.37E+05 with mice (mRNA LNP, 1.40:11.15:38.95:48.50, N/P 30, IM, organ not given); 8.01E+05 in the data set with mice (setting [9]); 4.81E+07 in the data set on mice (setting [10]). Moreover, the IVIS with mice (setting [11]) is listed as 1.53E+07; with mice (mRNA LNP, DMG-PEG2000:DSPC:Chol:lipid 1.00:4.00:30.00:65.00, N/P 30, IV, body), 1.10E+08; with mice (mRNA LNP, DMG-PEG2000:DSPC:Chol:lipid 1.40:11.15:38.95:48.50, N/P 30, IV, body), 2.50E+07. The “Zeta potential (mV)” value turned out to be 13.40 mV in data set [1] (setting [12]) and 16.43 mV in data set [1] (setting [13]). For the same compound, the PDI worked out at 0.17 in data set [2] (setting [12]) and 0.18 in data set [2] (setting [13]). In addition, the “Particle size (nm)” value in data set [2] (setting [12]) was 97.75 nm; in data set [2] (setting [13]), 91.53 nm.

As for `CCCCCCCCCCN(C)C(=O)C(O)CN(CCCN(C)CCCN(CC(O)C(=O)N(C)CCCCCCCCCC)CC(O)C(=O)N(C)CCCCCCCCCC)CC(O)C(=O)N(C)CCCCCCCCCC` (centres unmarked) [Compound L0347], the IVIS in the data set with mice (IM, mPEG-DMPE:DOPE:Chol:compound 1.40:11.15:38.95:48.50, N/P 24, Fluc-mRNA) came to 6.65E+04; with mice (IV, body, mPEG-DMPE:DOPE:Chol:compound 1.40:11.15:38.95:48.50, N/P 24, Fluc-mRNA), 3.20E+06; in the data set on mice (IV, liver, mPEG-DMPE:DOPE:Chol:compound 1.40:11.15:38.95:48.50, N/P 24, Fluc-mRNA), 1.56E+05; with mice (IV, lung, mPEG-DMPE:DOPE:Chol:compound 1.40:11.15:38.95:48.50, N/P 24, Fluc-mRNA), 9.16E+06; in the data set on mice (IV, spleen, mPEG-DMPE:DOPE:Chol:compound 1.40:11.15:38.95:48.50, N/P 24, Fluc-mRNA) it was 1.28E+06. Besides, the “% of organ targeting” value in the data set on mice (IV, liver, mPEG-DMPE:DOPE:Chol:compound 1.40:11.15:38.95:48.50, N/P 24) is given as 1.47%; with mice (IV, lung, mPEG-DMPE:DOPE:Chol:compound 1.40:11.15:38.95:48.50, N/P 24), 86.45%; with mice (IV, spleen, mPEG-DMPE:DOPE:Chol:compound 1.40:11.15:38.95:48.50, N/P 24) it was 12.08%. Further, the “Zeta potential (mV)” value in data set [1] (setting [14]) stood at 10.83 mV. This compound yielded a PDI in data set [2] (setting [14]) of 0.10. For the same compound, the “Particle size (nm)” value in data set [2] (setting [14]) stood at 148.60 nm.

The compound `CCCCCCOC(C)OCCCCCCOC(=O)C(O)CN(C)CCN(C)CCN(C)CC(O)C(=O)OCCCCCCOC(C)OCCCCCC` (centres unmarked) [Compound L0300] had an IVIS with mice (IM, DMG-PEG2000:DSPC:Chol:compound 1.40:11.15:38.95:48.50, N/P 20, Fluc-mRNA) of 1.09E+06. Further, in the data set with mice (IV, organ not given, DMG-PEG2000:DSPC:Chol:compound 1.40:11.15:38.95:48.50, N/P 20, Fluc-mRNA), the IVIS was found to be 7.12E+05. Moreover, the “Zeta potential (mV)” value in data set [1] (setting [15]) is given as 5.14 mV. Besides, in data set [2] (setting [15]), the PDI turned out to be 0.13 and the “Particle size (nm)” value worked out at 157.77 nm.
